Assay results published in patent EP0171760A2, “Substituted phenoxypropylaminoethoxyphenoxyacetamides” (BEECHAM GROUP PLC, priority 1984, dated 1986).

Legend:
[1] = system: left ventricular pressure (LVP); experiment: Assessment of inotropic activity in conscious cats; format: in vivo; conditions: 0.2 mg/kg p.o., gelatin capsule, recording 6 hours post dosing
Protocol: Male 3-4.5 kg cats, bred in-house, are implanted with a polythene cannula in the left ventricle which is exte- riorised at the back of the neck by means of a small teflon valve. Recordings are made via a pressure transducer attached by means of a length of polyethylene tubing to the cat neck valve.
During an initial 1 hour stabilisation period, steady baseline recordings are obtained. The test compound, contained in a gelatin capsule, is then administered orally. Recording is normally carried out for 6 hours post dosing.
The maximal percentage change in dp/dt over initial baseline level is used as the index of inotropic activity. Chronotropic activity is taken as the maximal percentage change in HR over initial baseline level.

[2] = system: spontaneously beating right atrium; experiment: Activity on isolated rat atria: rate of spontaneously beating right atrium; parameters: species or system Sprague-Dawley male rats; conditions: 32°C; for Emax: maximal effect with respect to isoprenaline maximum (isoprenaline 10^-7M = 1), Krebs solution, read-out: Rate Intrinsic activity; for EC50: molar concentration producing 50% of the compound's own maximum response
Protocol: (§1) Sprague-Dawley male rats (300-400 g) are killed and the right and left atria dissected out independently and mounted on a combined tissue holder/electrode. The tissues are then immersed in a glass bath containing Krebs solution maintained at 32°C. The rate of the spontaneously beating right atrium (via an isometric transducer and a ratemeter) and the tension of the electrically paced left atrium (via an isometric transducer)are recorded on a M19 chart recorder.
(§2) After an initial stabilization period, the tissues are exposed to a maximal concentration of isoprenaline (10^-7M). The tissues are then washed several times until rate and tension return to baseline level. A dose-response curve to the test compound is then carried out.
(§3) Responses to each concentration of test compound are expressed as a percentage of the maximal responses to isoprenaline. Results are given in the form of (a) intrinsic activity (maximal effect of test compound with respect to isoprenaline maximum, i.e. isoprenaline intrinsic activity = 1) and (b) EC50 (the molar concentration at which the test compound produces 50% of its own maximum response).

[3] = system: electrically paced left atrium; experiment: Activity on isolated rat atria: tension of electrically paced left atrium; parameters: species or system Sprague-Dawley male rats; conditions: 32°C; for Emax: maximal effect with respect to isoprenaline maximum (isoprenaline 10^-7M = 1), Krebs solution, read-out: Tension Intrinsic activity; for EC50: molar concentration producing 50% of the compound's own maximum response
Protocol: as §1, §2, §3

For `CNC(=O)COc1ccc(OCC(C)NCC(O)COc2ccc(O)cc2)cc1` (stereo not shown) [Example 1, N-methyl 4-[2-[3-(4-hydroxyphenoxy)-2-hydroxypropylamino]-2-methylethoxy]phenoxyacetamide], the “Peak HR” value ([1]; maximal percentage change in HR over initial baseline (chronotropic activity)) was 0%, the Peak dp/dt ([1]; maximal percentage change in dp/dt over initial baseline (inotropic activity)) was 22% and the Emax [2] was 94%. The EC50 [2] was 0.01 µM, the Emax [3] was 88% and the EC50 [3] was 0.025 µM.
`CNC(=O)COc1ccc(OCCNCC(O)COc2ccc(O)cc2)cc1` (stereo not shown) [Example 2, N-methyl 4-[2-[3-(4-hydroxyphenoxy)-2-hydroxypropylamino]ethoxy]-phenoxyacetamide] was tested, and the Emax [2] was 77%, the EC50 [2] was 0.068 µM and the Emax [3] was 61%. For the same compound, the EC50 [3] was 0.15 µM.
